Oligonucleotides are written 5' to 3', each unit as a sugar letter and its base; * is a phosphorothioate linkage, no mark a phosphodiester; rarer units and linkages stand in square brackets, end groups in braces. Plain capitals give the bases only. e = 2'-O-(2-methoxyethyl) (MOE); m = 2'-O-methyl; r = 2'-OH (RNA)

The test system of one data set is human survivin mRNA. The data set can be described thus: IC50 of dsRNA for survivin mRNA, dose response by quantitative RT-PCR ("D"). The format is cell-based. The note with it: D (dose response, mRNA levels), HeLa cells; read-out: IC50. How it is done:
Representative parameters that can be studied include, for example, translation of survivin mRNAs or survivin protein synthesis; effect on surrogate markers; or any other parameter that is indicative of potential dsRNA therapeutic effectiveness that can be conveniently measured in vitro.
(§1) For western blot analysis, cells are plated in 10 cm tissue culture dishes (Falcon, #3003) at a density of 7.5×10^5 cells/dish. For RT-PCR analysis, 96-well plates (Corning Incorporated, #3596) are plated with 1×10^4 cells/well. Lipofectin (GIBCO/Invitrogen) transfection reagent is used at a concentration of 3 ul/ml OPTIMEM reduced serum medium (Gibco/Invitrogen)/100 nM siRNA duplex. Lipofectin reagent is incubated with OPTIMEM medium for 30 minutes prior to the addition of siRNA. The desired amount of siRNA is added and mixed. Further 1:1 dilutions are performed in OPTIMEM. Cells are washed twice with 1× phosphate buffered saline and then treated with the siRNA/Lipofectin mixture in OPTIMEM. After a 4 hr incubation period, OPTIMEM medium is replaced with complete growth medium. Cells are harvested after additional 16-20 hrs for Western blot or RT-PCR analysis.
Total RNA is isolated using RNeasy® 96 kit according to recommended protocol (Qiagen). Briefly, cells are washed with 200 ul PBS after removal of growth medium. Following washing, 100 μl buffer RLT is added, plate is shaken vigorously for about 20 seconds. To each well 100 μl 70% ethanol are added and mixed by pipetting up and down three times. Samples are then applied into the wells of the RNeasy 96 plate placed in the QIAvac top base of the QIAvac 96 manifold, which is attached to a vacuum source. Vacuum is applied for 30 seconds or until transfer is complete. To each well 80 μl of DNase I incubation mix (20 mM Tris-HCl, pH 8.4, 2 mM MgCl2, 50 mM KCl and 225 Units/ml DNase I from Invitrogen) is added and incubated at room temperature for 30 minutes. Buffer RW1 (1 ml/well) is added and the vacuum is applied for 30 seconds. Buffer RPE (1 ml/well) is added to each well and vacuum is applied for 30 seconds. Washing steps with buffer RW1 and RPE1 are repeated once more. The plate is then removed from the manifold and blotted dry on paper towels. The plate is placed back in the QIAvac manifold and the vacuum is applied for 10 minutes. To elute RNA 30 μl of RNase-free water is added directly onto the membrane of each well, incubated for 1 minutes and vacuum is applied for 30 seconds. In order to maximize the recovery of total RNA the elution step is repeated with additional 30 μl/well RNase-free water.
Quantitation of survivin and GAPDH mRNA levels is determined by real-time quantitative RT-PCR using the ABI PRISM® 7900 Sequence Detection System (Applied Biosystems). RT-PCR reactions are carried out by adding 15 ul of TaqMan One Step PCR Master Mix (Applied Biosystems, #4309169) reagents (containing 100 nM each of forward primer and reverse primer, and 200 nM probe) to 96-well plates with 10 μl total RNA. For human survivin, the forward PCR primer is: 5′[…]3′ (SEQ ID NO: 186), and the reverse primer is: 5′[…]3′ (SEQ ID NO: 187). The survivin TaqMan® probe used is 5′(FAM)[…]3′ (SEQ ID NO: 188) (Biosearch Technologies, Inc.). This primer-probe set, designed to SEQ ID No 14 was used for all experiments in Examples 15 to the end. For human GAPDH, TaqMan GAPDH Control Reagent Kit is used (Applied Biosystems, #402869). The percentage inhibition for each samples are calculated by comparing the survivin/GAPDH mRNA ratio for the sample to survivin/GAPDH mRNA ratio for the untreated control. The IC50 is derived from the non-linear regression analysis of the percentage inhibition data using GraphPad Prism software (GraphPad Software).
The constructs tested comprise the antisense strand in the 5′-3′ orientation, and the sense strand in the 5′ to 3′ orientation, In Table 15, “D” is dose response (mRNA levels) and “W” is Western blot. […]
“339048_346294 (antisense AUUUGAAAAUGUUGAUCUCC; sense rA*rGrG*rArG*rArU*rCrA*rArC*rArU*rUrU*rUrC*rArA*rA; siRNA; antisense: unmodified RNA)”: the IC50 (in general, the point on the concentration scale where inhibition reaches its midpoint) worked out at 0.24 nM.

The same data set, now with this note: Table 16; cell line not given; read-out: IC50 (nM) mRNA, dsRNA to human survivin.
As to “ISIS 352507_352512: blunt-ended siRNA duplex: antisense 352507, sense 352512 (antisense mUrUmUrGmArAmArAmUrGmUrUmGrAmUrCmUrCmC; sense mGmGmAmGmAmUmCmAmAmCmAmUmUmUmUmCmAmAmA)”, the IC50 was 0.04 nM.

For “ISIS 352506_352514: blunt-ended siRNA duplex: antisense 352506, sense 352514 (antisense mUrUrUrGrAmAmArArUmGrUrUrGrArUrCmUmCmC; sense GGAGAUCAACAUUUUCAAA; sense: sugars from the 5' end rererererererererer, all phosphodiester, methylation of C and T or U not given here)”, the IC50 worked out at 0.12 nM.

In the case of “ISIS 352507_352511: blunt-ended siRNA duplex: antisense 352507, sense 352511 (antisense mUrUmUrGmArAmArAmUrGmUrUmGrAmUrCmUrCmC; sense GGAGAUCAACAUUUUCAAA; sense: all phosphodiester, sugars by position and methylation of C not given here; further chemistry not fully specified)”, the IC50 was 0.24 nM.

In the case of “ISIS 353538_343868: dsRNA duplex: antisense 353538 (4'-thio), sense 343868 (unmodified) (antisense UUUGAAAAUGUUGAUCUCC; sense GGAGAUCAACAUUUUCAAA; antisense: all phosphodiester, sugars by position and methylation of C not given here; sense: RNA, phosphodiester; antisense has 4'-thioribose at some positions, positions stated inconsistently, further chemistry not fully specified)”, the IC50 came out at 0.16 nM.

“ISIS 352507_352514: blunt-ended siRNA duplex: antisense 352507, sense 352514 (antisense mUrUmUrGmArAmArAmUrGmUrUmGrAmUrCmUrCmC; sense GGAGAUCAACAUUUUCAAA; sense: sugars from the 5' end rererererererererer, all phosphodiester, methylation of C and T or U not given here)”: the IC50 came out at 0.21 nM.

With “ISIS 353540_343868: dsRNA duplex: antisense 353540, sense 343868 (antisense UUUGAAAAUGUUGAUCUCC; sense GGAGAUCAACAUUUUCAAA; chemical modifications, chemistry not fully specified)”, the IC50 came out at 0.11 nM.

In the case of “ISIS 355710_343868: dsRNA duplex: antisense 355710, sense 343868 (antisense UUUGAAAAUGUUGAUCUCC; sense GGAGAUCAACAUUUUCAAA; chemical modifications, chemistry not fully specified)”, the IC50 was determined as 0.1 nM.

In the case of “ISIS 352507_346287: dsRNA duplex: antisense 352507, sense 346287 (antisense mUrUmUrGmArAmArAmUrGmUrUmGrAmUrCmUrCmC; sense rG*rG*rA*rG*rA*rU*rC*rA*rA*rC*rA*rU*rU*rU*rU*rC*rA*rA*rA)”, the IC50 came out at 0.8 nM.

In the case of “ISIS 346284_346287: blunt-ended siRNA 19 PO-PS/PS: antisense 346284, sense 346287 (antisense rUrU*rUrG*rArA*rArA*rUrG*rUrU*rGrA*rUrC*rUrC*rC; sense rG*rG*rA*rG*rA*rU*rC*rA*rA*rC*rA*rU*rU*rU*rU*rC*rA*rA*rA)”, the IC50 amounted to 3.24 nM.

Consider “ISIS 353539_343868: dsRNA duplex: antisense 353539, sense 343868 (antisense UUUGAAAAUGUUGAUCUCC; sense GGAGAUCAACAUUUUCAAA; chemical modifications, chemistry not fully specified)”, for which the IC50 came out at 0.13 nM.

The next data set has as its system survivin protein. The data set can be described thus: IC50 of dsRNA for survivin protein, quantitative Western blot ("W"). The note with it: W (Western blot), HeLa cells. In kind it is cell-based, human. On the procedure: Western blot analysis (immunoblot analysis) is carried out using standard methods. Cells are harvested 16-20 hours after oligonucleotide treatment, washed once with PBS, suspended in Laemmli buffer (100 μl/well), boiled for 5 minutes and loaded on a 16% SDS-PAGE gel. Gels are run for 1.5 hours at 150 V, and transferred to membrane for western blotting. Appropriate primary antibody directed to survivin is used, with a radiolabelled or fluorescently labeled secondary antibody directed against the primary antibody species. Bands are visualized using a PHOSPHORIMAGER™ (Molecular Dynamics, Sunnyvale, Calif.).
as §1
At the end of the incubation period culture medium is removed and cells are washed twice with PBS. Cells are lysed in RIPA buffer (20 mM Tris-HCl, pH 7.4, 5 mM EDTA, 50 mM NaCl, 10 mM Sodium Pyrophosphate, 50 mM Sodium Fluoride, and 1% Nonidet P40) plus Complete™ Mini protease inhibitor tablets (Roche, #1836153) and 1 mM Sodium orthovanadate (Sigma) by directly adding buffer to the plate. Lysates are collected by scrapping, transferred to microfuge tubes and cleared from the cellular debris by centrifugation at 14,000 rpm for 30 minutes at 4° C. Protein concentrations are determined using BCA protein assay yeagents (Pierce). Total cellular protein is subjected to SDS-PAGE and transferred onto Immobilon-P membranes (Millipore, #IPVHO91). Membranes are probed with primary antibodies to survivin (R&D Systems, #AF886) and to β-Actin (Sigma, #A5441). Horseradish peroxidase linked Anti-rabbit Ig, and anti-mouse Ig, antibodies (Pharmacia) are used as secondary antibodies. Antigen-antibody complexes are visualized by incubation of membrane in SuperSigmal West Pico chemiluminescence reagents (Pierce) for 5 minutes followed by capturing of the chemiluminescence using Fluor-S imager (Biorad) equipped with the cool CCD camera. The protein bands of interest for each sample are quantified using Quantity One software (Biorad). The percentage inhibition for each samples are calculated by comparing the survivin/Actin protein ratio for the sample to survivin/Actin protein ratio for the untreated control. The IC50 is derived from the non-linear regression analysis of the percentage inhibition data using GraphPad Prism software (GraphPad Software).
The constructs tested comprise the antisense strand in the 5′-3′ orientation, and the sense strand in the 5′ to 3′ orientation, In Table 15, “D” is dose response (mRNA levels) and “W” is Western blot. All internucleoside linkages are phosphodiester unless otherwise noted by a lowercase “s” indicating a phosphorothioate linkage.
For orientation: A western blot detects proteins with antibodies after separation by electrophoresis.
In turn, “339063_339093 (antisense AAGGAGUAUCUGCCAGACGC; sense GCGUCUGGCAGAUACUCCUU; siRNA; unmodified RNA)” displayed an IC50 of 6.2 nM.

In the case of “339066_339096 (antisense AAAGGAUUUAGGCCACUGCC; sense GGCAGUGGCCUAAAUCCUUU; siRNA; unmodified RNA)”, the IC50 came to 1.72 nM.

With “339064_339094 (antisense UAAUCACACAGCAGUGGCAA; sense UUGCCACUGCUGUGUGAUUA; siRNA; unmodified RNA)”, the IC50 was found to be 5.45 nM.

“339057_339087 (antisense CAGGGACUCUGUCUCCAUUC; sense GAAUGGAGACAGAGUCCCUG; siRNA; unmodified RNA)” came in with an IC50 not below 100 nM.

The subject of a further data set is human survivin mRNA. In words: Inhibition of human survivin mRNA expression in HeLa cells, real-time quantitative PCR. The note with it: Table 11; 0.2 nM; 16 h; averages from two experiments. In kind it is cell-based. In a few lines:
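Percent inhibition of survivin mRNA after antisense oligonucleotide treatment of HeLa cells, from a standard curve built on serially diluted untreated-control mRNA. Quantitation by TaqMan real-time RT-PCR with survivin-specific FAM/TAMRA probe and primers; GAPDH probed with JOE/TAMRA.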
Regarding “339048_346294 (antisense AUUUGAAAAUGUUGAUCUCC; sense rA*rGrG*rArG*rArU*rCrA*rArC*rArU*rUrU*rUrC*rArA*rA; siRNA; antisense: unmodified RNA)”, the “Percentage of Inhibition of survivin expression in HeLa cells” value (from here on “Percentage of Inhibition … in HeLa cells”) came out at 39%.

The data set is the same for the next values; noted with them: Table 11; 2.0 nM; 16 h; averages from two experiments.
“339048_346294 (antisense AUUUGAAAAUGUUGAUCUCC; sense rA*rGrG*rArG*rArU*rCrA*rArC*rArU*rUrU*rUrC*rArA*rA; siRNA; antisense: unmodified RNA)”: the “Percentage of Inhibition … in HeLa cells” value is listed as 65%.

The data set is the same for the next values; noted with them: Table 11; 20.0 nM; 16 h; averages from two experiments.
For the substance “339048_346294 (antisense AUUUGAAAAUGUUGAUCUCC; sense rA*rGrG*rArG*rArU*rCrA*rArC*rArU*rUrU*rUrC*rArA*rA; siRNA; antisense: unmodified RNA)”, the “Percentage of Inhibition … in HeLa cells” value was 85%.

The values above are taken from patent US20070161547A1, “Modulation of survivin expression” (priority 2003, published 2007).
